Test results reported in US6573078B1, “Compounds which inhibit HIV replication” (priority 1992, dated 2003).
“Also recorded” adds a separate entry of the source.

Key:
[1] = Circular dichroism spectra / thermal melt (secondary structure in solution); assay type: physicochemical; settings: for Conformation by CD spectra (in words): 37° C.
Experimental: (A) and 37° C. (B). Concentration dependence of the midpoint of the temperature dependence (Tm) of the CD signal (C). Tm corresponds to the maxima of the first derivative of the CD melt curve. The CD spectra were obtained in […], 150 mM sodium chloride buffer at pH 7.0.
Circular dichroism spectra were measured in 10 mM sodium phosphate, 150 mM sodium chloride, pH 7.0 buffer at approximately […] using a 1 cm pathlength cell on a Jobin/Yvon Autodichrograph Mark V CD spectrometer. Peptide concentrations were determined from A280 using Edlehoch's method (Biochemistry 6, 1948 (1967)).

HIV-1LAI virus = test: Peptide blockade of HIV-1 induced cell-cell fusion (syncytia formation; Molt4 cells co-cultivated with chronically infected CEM cells); assay type: cell-based; design: Anti-fusogenic activity (in words): dose or concentration left out as unconfirmed; settings: for No. Syncytia/well: Table 3, ctrl cells only = 85; for Fusion: quantity of compound required for 90% reduction in number of syncytia: control = 90 syncytia
Experimental: The initial screen for antiviral activity of the peptides shown in FIG. 1 was for blockade of syncytium formation induced by overnight co-cultivation of uninfected Molt4 cells with chronically infected (HIV-1IIIB) CEM cells.
Approximately 7×10^4 Molt cells were incubated with 1×10^4 CEM cells chronically infected with the HIV-1LAI virus in 96 well plates (one-half area cluster plates;Costar. Cambridge, Mass.) in a final volume of […] culture media in accordance with known techniques (T. Matthews et al., Proc. Natl. Acad. Sci. U.S.A. 84, 5424 (1987)). Peptide inhibitors were added in a volume of […] and the cell mixtures were incubated for 24 hr at 37° C. At that time point, multinucleated giant cells were estimated by microscopic examination at a 40× magnification which allowed visualization of the entire well in a single field.

HIV-1LAI [2] = test: Peptide inhibition of infection by cell-free virus (neutralization assay; AA5 cells, RT activity readout); assay type: cell-based; settings: for Blockade of HIVLAI infection of AA5 cells (in words): about 500 TCID50 of virus, RT activity in supernatant
Experimental: Cell cultures were maintained in 96-well microtiter plates for 8 days by addition of fresh medium (but no further addition of peptides) every other day. On the eighth day post-infection, supernatant was tested for reverse transcriptase activity as evidence of successful infection.
The micro RT assay was adapted from Goff et al. (J. Virol. 38, 239 (1981)) and Willey et al. (J. Virol. 62, 139 (1988)). Supernatants from virus/cell cultures are made 1% in Triton-X100. A […] sample of supernatant was added to 50 ml of RT cocktail in a 96 well U bottom microtiter plate and the samples incubated at […] for 90 min. The cocktail contained 75 mM KCl, 2 mM dithiothreitol, 5 mm Mgcl2l 5 mg/ml poly A (Pharmacia cat. No. 27-4110-01), 0.25 units/ml oligo dT (Pharmacia cat. No. 27-7858-01), 0.05% NP40, 50 mM Tris-HC1, pH 7.8, 0.5 mM non-radioactive dTTP, and 10 mCi/ml ^32p-dTTP (Amersham cat. No. PB.10167). After the incubation period, 40 ml of reaction mixture was applied to a Schleicher and Schuell NA45 membrane (or DE81 paper) saturated in 2×SSC buffer (0.3M NaCl and […]) held in a Schleicher and Schuell Minifold over one sheet of GB003 filter paper. Each well of the minifold was washed four times with […] 2×SSC. The membrane was removed from the minifold and washed 2 more times in a pyrex dish with an excess of 2×SSC. Finally the membrane was drained on absorbent paper, placed on Whatman #3 paper, covered with saran wrap, and exposed to film overnight.
The HIV1LAI virus was obtained from R. Gallo (see M. Popovic et al., Science 224, 497 (1984)) and propagated in CEM cells cultured in RPMI 1640 containing 10-% FCS. Supernatant from the infected CEM cells was passed through a […] and the infectious titer estimated in a microinfectivity assay using the AA5 cell line to support virus replication. For this purpose 25 ml of serially diluted virus was added to 75 ml AA5 cells at 2×10^5/ml in a 96 well microtiter plate. Each virus dilution was tested in triplicate. Cells were cultured for eight days by addition of fresh medium every other day. On day 8 post infection supernatant samples were tested for virus replication as evidenced by RT activity released to the supernatant in accordance with the procedure described above. The TCID50 was calculated according to the Reed and Muench formula in accordance with known techniques. See L. Reed et al., Amer. J. Hygiene 27, 493 (1938) . The titer of the HIV-1LAI stock used for these studies, as measured on the AA5 cell line, was approximately 1×10^7TCID50/ml. The two primary isolates were obtained from PBMCs of two infected donors, one from Brazil (HIV-1Br3) and the other Trinidad (HIV-1Q72775) by co-cultivation with PHA-blasted normal donor PBMCs in RPMI 1640 containing IL2. The infectious titers of the primary virus stocks were estimated by titration onto normal human PHA blasted PBMCs in a 96 well microtiter plate, again using RT activity released to the supernatant as evidence for successful infection. The infectious titer of both of these isolates was estimated to be approximately 1×10^3 TCID100/ml.
The peptides were next tested for blockade of infection by cell-free virus. The results shown in FIG. 3 are representative of several experiments in which the DP-107, 125, and (CS3) peptides were compared for potency in the blockade of HIVLAI, infection of AA5 cells. Each level of peptide was incubated in triplicate with about 500 TCID50 of virus and cells. After 7 days of culture, cell-free supernatant was tested for the presence of RT activity as a measure of successful infection.

CEM cells = test: Cytotoxic or cytostatic effects on CEM cells grown in presence of peptide; assay type: cell-based; settings: 50 mg/ml (highest concentration tested), three days, fresh peptide added each day
HIV-1LAI [3] = test: Peptide inhibition of PBMC infection by prototypic isolate (RT activity readout); assay type: cell-based; settings: FIG. 5
Experimental: (§1) About 25 TCID100 of two primary isolates and HIV-1LAI were added to […] human PBMCs (about 1.5×10^6/ml) containing the indicated final concentrations of test peptide or 5T4. Each treatment condition was tested in duplicate and the cells were cultured in RPMI1640 containing 10% FCS 5% IL2. Four days post infection an equal number of fresh PBMCs were added to each well. This step allows for further expansion of virus and increases the […] in the final RT assay. Supernatant was harvested 8 days after infection and tested for the presence of reverse transcriptase activity.
(§2) The micro RT assay was adapted from Goff et al. (J. Virol. 38, 239 (1981)) and Willey et al. (J. Virol. 62, 139 (1988)). Supernatants from virus/cell cultures are made 1% in Triton-X100. A […] sample of supernatant was added to 50 ml of RT cocktail in a 96 well U bottom microtiter plate and the samples incubated at 370° C. for 90 min. […]
(§3) The HIV1LAI virus was obtained from R. Gallo (see M. Popovic et al., Science 224, 497 (1984)) and propagated in CEM cells cultured in RPMI 1640 containing 10-% FCS. […] The TCID50 was calculated according to the Reed and Muench formula in accordance with known techniques. […] The titer of the HIV-1LAI stock used for these studies, as measured on the AA5 cell line, was approximately 1×10^7TCID50/ml. […]

[4] = test system: two primary HIV-1 isolates (HIV-1Br3, HIV-1Q72775); test: Peptide inhibition of PBMC infection by primary isolates (RT activity readout); assay type: cell-based; settings: FIG. 5
Experimental: as §1, §2, §3

[5] = molecular target: the molecule itself; test: CD thermal melt, concentration dependence of Tm (self-association)
[6] = EXP. 3, peptide concentration 2.5 micrograms/ml, 0 peptide = 76
[7] = EXP. 3, peptide concentration 5 micrograms/ml, 0 peptide = 76
[8] = EXP. 3, peptide concentration 10 micrograms/ml, 0 peptide = 76
[9] = EXP. 3, peptide concentration 20 micrograms/ml, 0 peptide = 76
[10] = EXP. 3, peptide concentration 40 micrograms/ml, 0 peptide = 76
[11] = peptide concentration 40 ug/ml on IIIB

In the case of “NNLLRAIEAQQHLLQLTVWGPKQLQARILAVERYLKDQ (Ac-NNLLRAIEAQQHLLQLTVWGPKQLQARILAVERYLKDQ-NH2) [DP-121]”, the “Conformation by CD spectra (in words)” value [1] is reported as “random coil conformations; also recorded: failed to exhibit helix related signals”, the “Syncytia Number” value (HIV-1LAI virus; [6]) is reported as 68 and the “Syncytia Number” value (HIV-1LAI virus; [7]) is reported as 60. For the same molecule, the “Syncytia Number” value (HIV-1LAI virus; [8]) was 65, the “Syncytia Number” value (HIV-1LAI virus; [9]) was 71 and the “Syncytia Number” value (HIV-1LAI virus; [10]) was 69. The “No. Syncytia/well” value (HIV-1LAI virus; [11]) was 79, the “Inhibitory / anti-viral / biological activity (in words)” value (HIV-1LAI virus; cell fusion assay) was “did not exhibit anti-viral activity; also recorded: no sign of inhibitory activity” and the “Fusion: quantity of compound required for 90% reduction in number of syncytia” value (“Fusion … for 90% reduction in number of syncytia” below) (HIV-1LAI virus) was >40 µg/mL. For the same molecule, the “Neutraliz: quantity of compound required for 90% reduction in infectivity” value (from here on “Neutraliz … for 90% reduction in infectivity”) (HIV-1LAI [2]) was >30 µg/mL.

With “LQARILAVERYLKDQQQ [DP-116, reference compound]” the “Conformation by CD spectra (in words)” value [1] was “random coil conformations”, the “Stable secondary structure by CD (in words)” value ([1]; even at low temperatures and high concentrations) was “no evidence for stable secondary structure” and the “Anti-fusogenic activity (in words)” value (HIV-1LAI virus) was “no evidence of anti-fusogenic activity”. The “Syncytia Number” value (HIV-1LAI virus; EXP. 1, peptide concentration 1.5 micrograms/ml, 0 peptide = 89) was 82, the “Syncytia Number” value (HIV-1LAI virus; EXP. 1, peptide concentration 3 micrograms/ml, 0 peptide = 89) was 89 and the “Syncytia Number” value (HIV-1LAI virus; EXP. 1, peptide concentration 6 micrograms/ml, 0 peptide = 89) was 92. The “Syncytia Number” value (HIV-1LAI virus; EXP. 1, peptide concentration 12 micrograms/ml, 0 peptide = 89) was 93, the “Syncytia Number” value (HIV-1LAI virus; EXP. 1, peptide concentration 25 micrograms/ml, 0 peptide = 89) was 82 and the “Syncytia Number” value (HIV-1LAI virus; EXP. 1, peptide concentration 50 micrograms/ml, 0 peptide = 89) was 89. For the same molecule, the “No. Syncytia/well” value (HIV-1LAI virus; [11]) was 77, the “Fusion … for 90% reduction in number of syncytia” value (HIV-1LAI virus) was >40 µg/mL and the “Neutraliz … for 90% reduction in infectivity” value (HIV-1LAI [2]) was >30 µg/mL. For the same molecule, the “Blockade of HIVLAI infection of AA5 cells (in words)” value (HIV-1LAI [2]; FIG. 3) was “no hint of anti-viral effect”.

For “Ac-NNLLRAIEAQQHLLQLTVWGIKQLQARILAVERYLKDQ-NH2 [DP-107]”, the “Viability and growth rate of CEM cells” value (CEM cells) was “same viability and growth rate as control cultures”.

With “CGNNLLRAIEAQQHLLQLTVWGIKQLQARILAVERYLKDQ (CGGNNLLRAIEAQQHLLQLTVWGIKQLQARILAVERYLKDQ) [DP-125]” the “Syncytia Number” value (HIV-1LAI virus; EXP. 2, peptide concentration 1.25 micrograms/ml, 0 peptide = 93) was 35, the “Syncytia Number” value (HIV-1LAI virus; EXP. 2, peptide concentration 2.5 micrograms/ml, 0 peptide = 93) was 3 and the “Syncytia Number” value (HIV-1LAI virus; EXP. 2, peptide concentration 5 micrograms/ml, 0 peptide = 93) was 0. The “Syncytia Number” value (HIV-1LAI virus; EXP. 2, peptide concentration 10 micrograms/ml, 0 peptide = 93) was 0, the “Syncytia Number” value (HIV-1LAI virus; EXP. 2, peptide concentration 20 micrograms/ml, 0 peptide = 93) was 0 and the “Syncytia Number” value (HIV-1LAI virus; EXP. 2, peptide concentration 40 micrograms/ml, 0 peptide = 93) was 0. The “Syncytia Number” value (HIV-1LAI virus; EXP. 3, peptide concentration 1.25 micrograms/ml, 0 peptide = 76) was 0, the “Syncytia Number” value (HIV-1LAI virus; [6]) was 0 and the “Syncytia Number” value (HIV-1LAI virus; [7]) was 0. The “Syncytia Number” value (HIV-1LAI virus; [8]) was 0, the “Syncytia Number” value (HIV-1LAI virus; [9]) was 0 and the “Syncytia Number” value (HIV-1LAI virus; [10]) was 0. The “No. Syncytia/well” value (HIV-1LAI virus; peptide concentration 1.25 ug/ml on IIIB) was 0, the “No. Syncytia/well” value (HIV-1LAI virus; peptide concentration 2.5 ug/ml on IIIB) was 0 and the “No. Syncytia/well” value (HIV-1LAI virus; peptide concentration 5 ug/ml on IIIB) was 0. For the same molecule, the “No. Syncytia/well” value (HIV-1LAI virus; peptide concentration 10 ug/ml on IIIB) was 0, the “No. Syncytia/well” value (HIV-1LAI virus; peptide concentration 20 ug/ml on IIIB) was 0 and the “No. Syncytia/well” value (HIV-1LAI virus; [11]) was 0. The “Fusion … for 90% reduction in number of syncytia” value (HIV-1LAI virus) was <1 µg/mL, the “Concentration required for inhibition relative to DP107” value (HIV-1LAI virus; syncytial blocking assays, Table 1 experiments 2 and 3) was “one-half to one-fourth” and the “Inhibition of PBMC infection by prototypic isolate HIVLAI (in words)” value (HIV-1LAI [3]) was “inhibit”. For the same molecule, the “Inhibition of PBMC infection by primary isolates (in words)” value [4] was “inhibit”, the “Neutraliz … for 90% reduction in infectivity” value (HIV-1LAI [2]) was 2 µg/mL and the “Dose required for inhibitory effect compared with DP-107 (in words)” value (HIV-1LAI [2]; FIG. 3) was “lower”. For the same molecule, the “Blockade of HIVLAI infection of AA5 cells (in words)” value (HIV-1LAI [2]; FIG. 3) was “inhibited the de-novo infection process”.

B1: DP-107 (peptide)
peptide: Ac-NNLLRAIEAQQHLLQLTVWGIKQLQARILAVERYLKDQ-NH2
notes: Synthetic peptide; also called peptide DP-107
B1: binds [5].
